In US9120771B2, “Azetidine derivative and antidepressant composition including the same” (KOREA INSTITUTE OF SCIENCE AND TECHNOLOGY, priority 2011, dated 2015):
Structures can show the parent of a compound that is named as a salt. Where two headings read alike, the source gives them in different places.

Columns and labels:
[1] = target: T1, human dopamine transporter (Homo sapiens (Human), UniProt Q01959); experiment: hDAT reuptake assay (HEK-hDAT, FDSS6000); format: cell-based; settings: HEK-hDAT cells
[2] = target: T2, human norepinephrine transporter (Homo sapiens (Human), UniProt P23975); experiment: hNET reuptake assay (HEK-hNET, FDSS6000); format: cell-based; settings: HEK-hNET cells
[3] = target: T3, human serotonin transporter (Homo sapiens (Human), UniProt P31645); experiment: hSERT reuptake assay (HEK-hSERT, FDSS6000); format: cell-based; settings: HEK-hSERT cells
[4] = target: T1, human dopamine transporter; experiment: hDAT binding assay ([3H]WIN35,428); settings: for IC50: 8 nM [3H]WIN35,428; for inhibition at 10 µM: read-out: hDAT binding assay %-inhibition (10 uM);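 as to all read-outs here: displacement of the radioligand from the transporter membranes, incubated 120 min at 4 °C in Tris-HCl buffer with NaCl, pH 7.4, measured by filter-bound radioactivity counting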
[5] = target: T3, human serotonin transporter; experiment: hSERT binding assay ([3H]Imipramine); settings: for inhibition at 10 µM: read-out: hSERT binding assay %-inhibition (10 uM);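 as to all read-outs here: displacement of radiolabeled imipramine from the transporter, incubated 30 min at 27 °C in Tris-HCl pH 7.4 with NaCl and KCl, bound radioactivity counted after filtration, nonspecific binding defined with 200 uM imipramine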
[6] = target: T2, human norepinephrine transporter; experiment: hNET binding assay ([3H]Nisoxetine); settings: for inhibition at 10 µM: read-out: hNET binding assay %-inhibition (10 uM)
Description: NE transporter binding assay for evaluating binding of the compound to the norepinephrine transporter was carried out using human recombinant norepinephrine transporter membrane (PerkinElmer Life and Analytical Sciences, USA) expressed in MDCK cells and radioisotope [^3H]Nisoxetine (PerkinElmer).
That is, the test drug, 6 nM [^3H]Nisoxetine, norepinephrine transporter membrane (11 ug/well), 120 mM NaCl and 50 mM Tris-HCl buffer (pH 7.4) containing 5 mM KCl were added to obtain a reaction mixture with a final volume of 0.25 ml. After incubation for 60 minutes at 4° C., the mixture was quickly passed through a Filtermat A glass fiber filter pre-soaked with 0.5% (w/v) PEI (polyethyleneimine) using Inotech Harvester (Inotech) to terminate the reaction. After washing with cold washing buffer (50 mM Tris-HCl, pH 7.4, 0.9% NaCl) solution, the filter was covered with MeltiLex and sealed in a sample bag. After drying in an oven, radioactivity was counted using MicroBeta Plus (Wallac).
Non-specific binding was measured in the presence of 1 uM desipramine. The IC50 value of the test drug was calculated from non-linear regression analysis (GraphPad Prism Program, San Diego, USA) of each %-inhibition value obtained from the drug with concentrations of 7th and 8th steps.

[7] = 10 uM, membrane from HEK293 cells
[8] = membrane from HEK293 cells, 2 nM [3H]Imipramine
[9] = 10 uM, membrane from MDCK cells
[10] = membrane from MDCK cells, 6 nM [3H]Nisoxetine
[11] = 10 uM, membrane from CHO-K1 cells

T1 sequence (Q01959 whole entry): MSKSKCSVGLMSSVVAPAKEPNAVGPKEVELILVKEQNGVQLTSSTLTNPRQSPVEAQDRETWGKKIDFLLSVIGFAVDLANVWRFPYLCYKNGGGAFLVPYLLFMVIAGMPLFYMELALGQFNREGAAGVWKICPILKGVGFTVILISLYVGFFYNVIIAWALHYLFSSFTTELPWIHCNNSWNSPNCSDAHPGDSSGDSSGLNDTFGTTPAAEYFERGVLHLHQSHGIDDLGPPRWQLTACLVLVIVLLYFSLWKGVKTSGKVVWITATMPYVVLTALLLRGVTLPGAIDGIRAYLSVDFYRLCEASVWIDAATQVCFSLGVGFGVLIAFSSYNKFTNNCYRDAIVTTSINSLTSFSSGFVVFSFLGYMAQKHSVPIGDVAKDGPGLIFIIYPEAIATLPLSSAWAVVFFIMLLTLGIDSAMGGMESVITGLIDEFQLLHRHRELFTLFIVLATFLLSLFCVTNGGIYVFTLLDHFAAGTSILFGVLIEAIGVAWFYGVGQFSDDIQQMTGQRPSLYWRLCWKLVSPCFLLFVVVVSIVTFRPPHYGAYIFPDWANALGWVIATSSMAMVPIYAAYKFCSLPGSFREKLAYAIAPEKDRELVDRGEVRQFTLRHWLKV
T3 sequence (P31645 whole entry): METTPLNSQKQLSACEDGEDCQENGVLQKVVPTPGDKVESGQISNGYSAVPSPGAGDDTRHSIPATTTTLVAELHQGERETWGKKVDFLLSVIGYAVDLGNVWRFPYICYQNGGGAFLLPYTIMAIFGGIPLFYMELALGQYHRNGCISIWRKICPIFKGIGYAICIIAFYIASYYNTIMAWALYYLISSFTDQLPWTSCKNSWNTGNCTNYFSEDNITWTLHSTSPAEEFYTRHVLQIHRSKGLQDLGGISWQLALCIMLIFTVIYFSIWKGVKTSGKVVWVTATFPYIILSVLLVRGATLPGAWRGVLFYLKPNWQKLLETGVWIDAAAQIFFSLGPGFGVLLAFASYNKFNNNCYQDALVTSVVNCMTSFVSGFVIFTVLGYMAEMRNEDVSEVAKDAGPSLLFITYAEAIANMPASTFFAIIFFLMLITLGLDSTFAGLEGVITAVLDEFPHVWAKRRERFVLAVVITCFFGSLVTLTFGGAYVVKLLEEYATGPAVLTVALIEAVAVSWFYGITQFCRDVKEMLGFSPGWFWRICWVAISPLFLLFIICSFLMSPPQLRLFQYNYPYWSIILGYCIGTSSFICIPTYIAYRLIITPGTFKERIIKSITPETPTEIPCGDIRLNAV
T2 sequence (P23975 whole entry): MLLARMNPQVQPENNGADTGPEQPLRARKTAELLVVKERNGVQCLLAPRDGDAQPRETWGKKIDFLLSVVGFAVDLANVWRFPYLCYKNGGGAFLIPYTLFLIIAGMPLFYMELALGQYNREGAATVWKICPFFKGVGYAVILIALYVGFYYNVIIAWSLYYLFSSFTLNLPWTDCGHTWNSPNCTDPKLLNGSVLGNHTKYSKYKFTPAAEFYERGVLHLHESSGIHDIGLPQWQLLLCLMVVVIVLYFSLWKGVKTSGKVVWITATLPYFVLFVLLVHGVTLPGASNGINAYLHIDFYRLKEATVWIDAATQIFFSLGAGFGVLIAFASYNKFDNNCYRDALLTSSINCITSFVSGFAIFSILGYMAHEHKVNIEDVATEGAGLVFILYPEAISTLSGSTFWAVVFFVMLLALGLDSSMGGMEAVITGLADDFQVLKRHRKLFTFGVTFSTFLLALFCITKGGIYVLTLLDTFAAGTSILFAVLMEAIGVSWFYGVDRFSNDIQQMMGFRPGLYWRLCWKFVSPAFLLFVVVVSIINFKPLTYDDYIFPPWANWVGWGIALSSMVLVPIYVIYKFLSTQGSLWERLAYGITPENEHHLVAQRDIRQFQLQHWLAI

Row | SMILES | IC50 ([1]; Table 3) | IC50 ([2]; Table 3) | melting point | IC50 ([3]; Table 3) | IC50 ([4]; membrane from CHO-K1 cells) | inhibition at 10 µM [4] | inhibition at 10 µM [5, 7] | IC50 [5, 8] | inhibition at 10 µM [6, 9] | IC50 [6, 10] | IC50 ([1]; Table 4) | IC50 ([2]; Table 4) | IC50 ([3]; Table 4) | further results
1 | Cl.c1ccc(COC(c2ccccc2)C2CNC2)cc1 (centres unmarked) [KHG26768, 3-((benzyloxy)(phenyl)methyl)azetidine hydrochloride] | 1.9 µM | 0.8 µM | 185 °C | 4.6 µM | 0.985 µM | 90% | 97% | 0.0829 µM | 84% | 2.3 µM |  |  |  | 
2 | Cl.Clc1ccc(C(OC2CCC2)C2CNC2)cc1Cl (centres unmarked) [KHG27253, 3-(cyclobutoxy(3,4-dichlorophenyl)methyl)azetidine hydrochloride] |  |  | 166.1 °C |  |  |  |  |  |  |  | 0.0334 µM | 0.011 µM | 0.0256 µM | 
3 | Cl.Clc1ccc(C(OCc2ccccc2)C2CNC2)cc1 (centres unmarked) [KHG26769, 3-((benzyloxy)(4-chlorophenyl)methyl)azetidine hydrochloride] | 0.8 µM | 0.5 µM | 184 °C | 1.5 µM | 0.29 µM | 84% | 100% | 0.0216 µM | 94% | 1.34 µM |  |  |  | 
4 | Cl.Clc1ccc(C(OCc2ccccc2)C2CNC2)cc1Cl (centres unmarked) [KHG26770, 3-((benzyloxy)(3,4-dichlorophenyl)methyl)azetidine hydrochloride] | 0.8 µM | 0.7 µM | 128 °C | 0.9 µM | 0.0232 µM | 96% | 98% | 0.00781 µM | 99% | 0.0931 µM |  |  |  | 
5 | Cc1cccc(OC(c2ccc(Cl)c(Cl)c2)C2CNC2)c1.Cl (centres unmarked) [KHG26775, 3-((3,4-dichlorophenyl)(meta-tolyloxy)methyl)azetidine hydrochloride] | 0.4 µM | 0.6 µM | 200 °C | 0.6 µM | 0.0618 µM | 99% | 99% | 0.0198 µM | 100% | 0.0284 µM |  |  |  | 
6 | CCCC(Oc1ccc2ccccc2c1)C1CNC1.Cl (centres unmarked) [KHG27284, 3-(1-(naphthalene-2-yloxy)butyl)azetidine hydrochloride] |  |  | 77 °C |  |  |  |  |  |  |  | 0.71 µM | 0.0795 µM | 0.00855 µM | 
7 | Clc1ccc(C(Oc2ccccc2)C2CNC2)cc1Cl (centres unmarked) [KHG26767, 3-((3,4-dichlorophenyl)(phenoxy)methyl)azetidine hydrochloride] | 0.06 µM | 0.03 µM |  | 0.05 µM | 0.0688 µM |  | 98% | 0.0043 µM | 100% | 0.0055 µM |  |  |  | inhibition at 10 µM [4, 11]: 94%
8 | c1ccc(OC(c2ccccc2)C2CNC2)cc1 (centres unmarked) [KHG26765, hydrochloride] | 0.38 µM | 0.04 µM |  | 0.05 µM | 0.857 µM | 87% | 98% | 0.112 µM | 90% | 1.66 µM |  |  |  | 
9 | Cl.O=C(OC(c1ccc(Cl)cc1)C1CNC1)c1ccccc1 (centres unmarked) [KHG26772, azetidine-3-ly(4-chlorophenyl)methyl benzoate hydrochloride] | 1.3 µM | 2.5 µM |  | 2.6 µM | 0.319 µM |  |  | 0.357 µM |  | 3.48 µM |  |  |  | hDAT binding assay %-inhibition (10 uM) [4, 11]: 66%; hSERT binding assay %-inhibition (10 uM) [5, 7]: 96%; hNET binding assay %-inhibition (10 uM) [6, 9]: 90%
10 | Cc1ccccc1OC(c1ccc(Cl)c(Cl)c1)C1CNC1.Cl (centres unmarked) [KHG26774, 3-((3,4-dichlorophenyl)(ortho-tolyloxy)methyl)azetidine hydrochloride] | 0.3 µM | 2.2 µM | 194 °C | 0.8 µM | 0.119 µM | 96% |  |  | 100% | 0.0258 µM |  |  |  | IC50 [5]: 0.0116 µM; inhibition at 10 µM [5]: 100%
11 | Cl.O=C(OC(c1ccc(Cl)c(Cl)c1)C1CNC1)c1ccccc1 (centres unmarked) [KHG26773, azetidine-3-ly(3,4-dichlorophenyl)methyl benzoate hydrochloride] | 0.5 µM | 1.1 µM |  | 0.9 µM | 0.241 µM |  |  | 0.0699 µM |  | 0.214 µM |  |  |  | hDAT binding assay %-inhibition (10 uM) [4, 11]: 97%; hSERT binding assay %-inhibition (10 uM) [5, 7]: 100%; hNET binding assay %-inhibition (10 uM) [6, 9]: 100%
12 | Cc1ccc(OC(c2ccc(Cl)c(Cl)c2)C2CNC2)cc1.Cl (centres unmarked) [KHG26776, 3-((3,4-dichlorophenyl)(para-tolyloxy)methyl)azetidine hydrochloride] | 0.3 µM | 0.5 µM | 193 °C | 0.7 µM | 0.168 µM | 95% | 100% | 0.00567 µM |  |  |  |  |  | IC50 [6]: 0.0271 µM; inhibition at 10 µM [6]: 100%
13 | Cl.Clc1ccc(C(OC2CCCCC2)C2CNC2)cc1Cl (centres unmarked) [KHG27255, 3-((cyclohexyloxy)(3,4-dichlorophenyl)methyl)azetidine hydrochloride] |  |  | 189.4 °C |  |  |  |  |  |  |  | 0.0548 µM | 0.0142 µM | 0.0584 µM | 
14 | CC(C)(C)OC(c1ccc(Cl)c(Cl)c1)C1CNC1.Cl (centres unmarked) [KHG27252, 3-(tertiarybutoxy(3,4-dichlorophenyl)methyl)azetidine hydrochloride] |  |  | 159.9 °C |  |  |  |  |  |  |  | 0.1 µM | 0.096 µM | 0.087 µM | 
15 | Clc1ccc(C(OC2CCCC2)C2CNC2)cc1Cl (centres unmarked) [KHG27254, 3-((cyclopentyloxy)(3,4-dichlorophenyl)methyl)azetidine hydrochloride] |  |  |  |  |  |  |  |  |  |  | 0.0258 µM | 0.0158 µM | 0.0258 µM | 
16 | CN1CC(C(Oc2ccccc2)c2ccc3ccccc3c2)C1 (centres unmarked) [KHG26907, 1-methyl-3-(naphthalene-2-yl(phenoxy)methyl)azetidine] |  |  |  |  |  |  |  |  |  |  | 0.223 µM | 0.0879 µM | 0.202 µM | 
17 | Cl.Clc1ccc(C(Oc2ccccc2)C2CNC2)cc1 (centres unmarked) [KHG26766, 3-((4-chlorophenyl)(phenoxy)methyl)azetidine hydrochloride] | 0.15 µM | 0.04 µM | 191 °C | 0.04 µM | 0.227 µM | 94% |  |  | 90% | 0.0902 µM |  |  |  | IC50 [5]: 0.0092 µM; inhibition at 10 µM [5]: 98%
